# Source: patent US8399462B2, “JNK modulators” (Roche Palo Alto LLC, priority 2006, dated 2013)
row,Compound,melting point
1,Cl.N[C@H]1CC[C@H](Nc2nccc(-n3ccc4c(F)cccc43)n2)CC1,> 300 °C
2,CS(=O)(=O)CCCOc1cccc2c1ccn2-c1ccnc(N[C@H]2CC[C@H](N)CC2)n1.Cl,291 to 292 °C
3,CS(=O)(=O)CCCOc1cccc2c1ccn2-c1ccnc(N[C@H]2CC[C@H](NC(=O)CCN)CC2)n1.Cl,263 to 264 °C
4,CS(=O)(=O)CCCOc1cccc2c1ccn2-c1ccnc(N[C@H]2CC[C@H](CN)CC2)n1.Cl,292 to 293 °C
5,Cl.NC[C@H]1CC[C@H](Nc2nccc(-n3ccc4c(OCCCC(F)(F)F)cccc43)n2)CC1,274 to 275 °C
6,CS(=O)(=O)CCCOc1cccc2c1ccn2-c1ccnc(N[C@H]2CC[C@H](C(=O)N3CCC(=O)CC3)CC2)n1,155 to 158.2 °C
7,"CC1(C)OC[C@@H](COc2cccc3c2cnn3-c2ccnc(N[C@H]3CC[C@H](O)CC3)n2)O1 (stereo in doubt) [Compound 98, 4-{4-[4-(2,2-dimethyl-[1,3]dioxolan-4-ylmeth-oxy)-indazol-1-yl]-pyrimidin-2-ylamino}-cyclohexanol]",189.2 to 190 °C
8,"CC1(C)OC[C@@H](COc2cccc3c2cnn3-c2ccnc(N[C@H]3CC[C@H](C(=O)N4CCCC4)CC3)n2)O1 (stereo in doubt) [Compound 127, (4-{4-[4-(2,2-dimethyl-[1,3]dioxolan-4-yl-methoxy)-indazol-1-yl]-pyrimidin-2-ylamino}-cyclohexyl)-pyrrolidin-1-ylmethanone]",196 to 198 °C
9,"CC1(C)OC[C@@H](COc2cccc3c2cnn3-c2ccnc(N[C@H]3CC[C@H](NS(C)(=O)=O)CC3)n2)O1 (stereo in doubt) [Compound 128, N-(4-{4-[4-(2,2-di-methyl[1,3]dioxolan-4-ylmethoxy)-indazol-1-yl]-pyrimidin-2-yl-amino}-cyclohexyl)-methanesulfonamide]",247 to 247.8 °C
10,"CC(=O)N[C@H]1CC[C@H](Nc2nccc(-n3ncc4c(OC[C@@H]5COC(C)(C)O5)cccc43)n2)CC1 (stereo in doubt) [Compound 131, N-(4-{4-[4-(2,2-di-methyl[1,3]dioxolan-4-ylmethoxy)-indazol-1-yl]-pyrimidin-2-yl-amino}-cyclohexyl)-acetamide]",214.5 to 215.5 °C
11,"CC1(C)OC[C@@H](COc2cccc3c2cnn3-c2ccnc(N[C@H]3CC[C@H](C(C)(C)O)CC3)n2)O1 (stereo in doubt) [Compound 132, 2-(4-{4-[4-(2,2-di-methyl[1,3]dioxolan-4-ylmethoxy)-indazol-1-yl]-pyrimidin-2-yl-amino}-cyclohexyl)-propan-2-ol]",178.5 to 180 °C
12,"O=C([C@H]1CC[C@H](Nc2nccc(-n3ncc4c(OC[C@@H](O)CO)cccc43)n2)CC1)N1CCCC1 (stereo in doubt) [Compound 153, (4-{4-[4-(2,3-dihydroxy-propoxy)-indazol-1-yl]-pyrimidin-2ylamino}-cyclohexyl)-pyrrolidin-1-ylmethanone]",166 to 167 °C
13,"CC(=O)N[C@H]1CC[C@H](Nc2nccc(-n3ncc4c(OC[C@@H](O)CO)cccc43)n2)CC1 (stereo in doubt) [Compound 154, N-(4-{4-[4-(2,3-di-hydroxy-propoxy)-indazol-1-yl]-pyrimidin-2-ylamino}-cyclohexyl)-acetamide]",202 to 205 °C
14,"C[C@@H](CO)COc1cccc2c1cnn2-c1ccnc(N[C@H]2CC[C@H](C(=O)N3CCCC3)CC2)n1 (stereo in doubt) [Compound 171, (4-{4-[4-(3-hydroxy-2-methylpropoxy)-indazol-1-yl]-pyrimidin-2-ylamino}-cyclohexyl)-pyrrolidin-1-ylmethanone]",199.4 to 200.4 °C
15,"CC(=O)N[C@H]1CC[C@H](Nc2nccc(-n3ncc4c(OC[C@@H](C)CO)cccc43)n2)CC1 (stereo in doubt) [Compound 172, N-(4-{4-[4-(3-hydroxy-2-methylpropoxy)-indazol-1-yl]-pyrimidin-2-ylamino}-cyclohexyl)-acetamide]",215 to 216 °C
16,"C[C@@H](CO)COc1cccc2c1cnn2-c1ccnc(N[C@H]2CC[C@H](C(C)(C)O)CC2)n1 (stereo in doubt) [Compound 185, 3-(1-{2-[4-(2-hydroxy-prop-2-yl)-cyclohexyl-amino]-pyrimidin-4-yl}-1H-indazol-4-yloxy)-2-methylpropan-1-ol]",211 to 212.5 °C
17,"C[C@@H](CO)COc1cccc2c1cnn2-c1ccnc(N[C@H]2CC[C@H](N(C)S(C)(=O)=O)CC2)n1 (stereo in doubt) [Compound 186, N-(4-{4-[4-(3-hydroxy-2-methylpropoxy)-indazol-1-yl]-pyrimidin-2-ylamino}-cyclohexyl)-N-methyl-methanesulfonamide]",222 to 224 °C

row,Compound,melting point
1,"CS(=O)(=O)C[C@H](O)COc1cccc2c1cnn2-c1ccnc(N[C@H]2CC[C@H](O)CC2)n1 (stereo in doubt) [Compound 198, 4-{4-[4-(2-hydroxy-3-methanesulfonyl-propoxy)-indazol-1-yl]-pyrimidin-2-ylamino}-cyclohexanol]",211 to 212 °C
2,"CS(=O)(=O)CCCOc1cccc2c1cnn2-c1ccnc(N[C@H]2CC[C@H](C(=O)N3CC[C@@H](O)C3)CC2)n1 (stereo in doubt) [Compound 216, (3-hydroxy-pyrrolidin-1-yl)-(4-{4-[4-(3-methane-sulfonyl-propoxy)-indazol-1-yl]-pyrimidin-2-ylamino}-cyclohexyl)-methanone]",174 to 175 °C
3,"CS(=O)(=O)CCCOc1cccc2c1cnn2-c1ccnc(N[C@H]2CC[C@H](C(=O)N3CC[C@H](O)C3)CC2)n1 (stereo in doubt) [Compound 217, (3-hydroxy-pyrrolidin-1-yl)-(4-{4-[4-(3-methane-sulfonyl-propoxy)-indazol-1-yl]-pyrimidin-2-ylamino}-cyclohexyl)-methanone]",175 to 176 °C
4,"CS(=O)(=O)C[C@H](O)COc1cccc2c1cnn2-c1ccnc(N[C@H]2CC[C@H](C(=O)N3CCC(O)CC3)CC2)n1 (stereo in doubt) [Compound 234, (4-{4-[4-(2-hydroxy-3-methanesulfonyl-propoxy)-indazol-1-yl]-pyrimidin-2-ylamino}-cyclohexyl)-(4-hydroxy-piperidin-1-yl)-methanone]",232 to 233 °C
5,"NS(=O)(=O)CCCOc1cccc2c1cnn2-c1ccnc(N[C@H]2CC[C@H](C(=O)N3CC[C@H](O)C3)CC2)n1 (stereo in doubt) [Compound 252, 3-(1-{2-[4-(3-hydroxy-pyrrolidine-1-carbonyl)-cyclohexylamino]-pyrimidin-4-yl}-1H-indazol-4-yloxy)-propane-1-sulfonic acid amide]",161 to 162 °C
6,"NS(=O)(=O)CCCOc1cccc2c1cnn2-c1ccnc(N[C@H]2CC[C@H](C(=O)N3CC[C@@H](O)C3)CC2)n1 (stereo in doubt) [Compound 253, 3-(1-{2-[4-(3-hydroxy-pyrrolidine-1-carbonyl)-cyclohexylamino]-pyrimidin-4-yl}-1H-indazol-4-yloxy)-propane-1-sulfonic acid amide]",178 to 179 °C
7,"CC(C)(CO)COc1cccc2c1cnn2-c1ccnc(N[C@H]2CC[C@H](C(=O)N3CC[C@@H](O)C3)CC2)n1 (stereo in doubt) [Compound 261, (4-{4-[4-(3-hydroxy-2,2-dimethyl-propoxy)-indazol-1-yl]-pyrimidin-2-ylamino}-cyclohexyl)-(3-hydroxy-pyrrolidin-1-yl)-methanone]",214 to 215 °C
8,"COC[C@@H]1CCCN1C(=O)[C@H]1CC[C@H](Nc2nccc(-n3ccc4c(OCCCS(C)(=O)=O)cccc43)n2)CC1 (stereo in doubt) [Compound 266, (4-{4-[4-(3-methane-sulfonyl-propoxy)-indol-1-yl]-pyrimidin-2-ylamino}-cyclohexyl)-(2-methoxymethyl-pyrrolidin-1-yl)-methanone]",92 to 93 °C
9,"C[C@@H]1CC[C@@H](C)N1C(=O)[C@H]1CC[C@H](Nc2nccc(-n3ncc4c(OCCCS(N)(=O)=O)cccc43)n2)CC1 (stereo in doubt) [Compound 271, 3-(1-{2-[4-(2,5-di-methyl-pyrrolidine-1-carbonyl)-cyclohexyl-amino]-pyrimidin-4-yl}-1H-indazol4-yloxy)-propane-1-sulfonic acid amide]",230 to 231 °C
10,"C[C@@H]1CCCN1C(=O)[C@H]1CC[C@H](Nc2nccc(-n3ncc4c(OCCCS(N)(=O)=O)cccc43)n2)CC1 (stereo in doubt) [Compound 272, 3-(1-{2-[4-(2-methyl-pyrrolidine-1-carbonyl)-cyclohexylamino]-pyrimidin-4-yl}-1H-indazol4-yloxy)-propane-1-sulfonic acid amide]",230 to 231 °C
11,"C[C@H]1CCCN1C(=O)[C@H]1CC[C@H](Nc2nccc(-n3ncc4c(OCCCS(N)(=O)=O)cccc43)n2)CC1 (stereo in doubt) [Compound 273, 3-(1-{2-[4-(2-methyl-pyrrolidine-1-carbonyl)-cyclohexylamino]-pyrimidin-4-yl}-1H-indazol-4-yloxy)-propane-1-sulfonic acid amide]",230 to 231 °C
12,O=[N+]([O-])c1ccc2cnn(-c3ccnc(N[C@H]4CC[C@H](O)CC4)n3)c2c1 [Compound 27],221.8 to 223 °C
13,"COC(=O)c1cccc2c1ccn2-c1ccnc(N[C@H]2CC[C@H](O)CC2)n1 [Compound 37, 1-[2-(4-hydroxycyclo-hexylamino)-pyrimidin-4-yl]-1H-indole-4-carboxylic acid methyl ester]",206.7 to 208.3 °C
14,"N[C@H]1CC[C@H](Nc2nccc(-n3ccc4ccccc43)n2)CC1 [Compound 52, N-(4-indol-1-yl-pyrimidin-2-yl)-cyclo-hexane-1,4-diamine]",270.1 to 273.3 °C
15,"c1ccc2c(c1)ccn2-c1ccnc(NC2CCCCC2)n1 [Compound 66, Cyclohexyl-(4-indol-1-ylpyrimidin-2-yl)amine]",192.5 to 193 °C
16,"Cn1nc(-c2ccnc(N[C@H]3CC[C@H](O)CC3)n2)c2ccccc21 [Compound 77, 4-[4-(1-methyl-1H-indazol-3-yl)pyridimidin-2-ylamino]-cyclo-hexanol]",180 to 183.3 °C
17,"COc1cccc2c(-c3ccnc(N[C@H]4CC[C@H](O)CC4)n3)n[nH]c12 [Compound 80, 4-[4-(7-methoxy-1H-indazol-3-yl)-pyrimidin-2-ylamino]-cyclo-hexanol]",243.3 to 244.9 °C
